Results as given in US8710043B2, “TRPM8 antagonists and their use in treatments” (Amgen Inc., priority 2011, dated 2014).

Target: T1, human TRPM8 (Homo sapiens, UniProt Q7Z2W7)
T1 construct: expressed in transfected cells; host or cells: Chinese hamster ovary (CHO) cells, T-REx tetracycline-inducible system, co-transfected with aequorin
Test: Luminescence readout assay for measuring intracellular calcium, icilin activation
Format: cell-based
Settings: CHO cells expressing human TRPM8, aequorin luminescence, 1 μM icilin activation; read-out: hTRPM8 IC50
Summary of the method: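 The read-out was luminescence reporting intracellular calcium, recorded by a CCD-based luminometer. Compounds were preincubated for 2.5 min before agonist challenge with 1 μM icilin. Human TRPM8 was expressed in a stable T-REx CHO line, induced with 0.5 μg/mL tetracycline the day before.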

T1 sequence (Q7Z2W7 whole entry): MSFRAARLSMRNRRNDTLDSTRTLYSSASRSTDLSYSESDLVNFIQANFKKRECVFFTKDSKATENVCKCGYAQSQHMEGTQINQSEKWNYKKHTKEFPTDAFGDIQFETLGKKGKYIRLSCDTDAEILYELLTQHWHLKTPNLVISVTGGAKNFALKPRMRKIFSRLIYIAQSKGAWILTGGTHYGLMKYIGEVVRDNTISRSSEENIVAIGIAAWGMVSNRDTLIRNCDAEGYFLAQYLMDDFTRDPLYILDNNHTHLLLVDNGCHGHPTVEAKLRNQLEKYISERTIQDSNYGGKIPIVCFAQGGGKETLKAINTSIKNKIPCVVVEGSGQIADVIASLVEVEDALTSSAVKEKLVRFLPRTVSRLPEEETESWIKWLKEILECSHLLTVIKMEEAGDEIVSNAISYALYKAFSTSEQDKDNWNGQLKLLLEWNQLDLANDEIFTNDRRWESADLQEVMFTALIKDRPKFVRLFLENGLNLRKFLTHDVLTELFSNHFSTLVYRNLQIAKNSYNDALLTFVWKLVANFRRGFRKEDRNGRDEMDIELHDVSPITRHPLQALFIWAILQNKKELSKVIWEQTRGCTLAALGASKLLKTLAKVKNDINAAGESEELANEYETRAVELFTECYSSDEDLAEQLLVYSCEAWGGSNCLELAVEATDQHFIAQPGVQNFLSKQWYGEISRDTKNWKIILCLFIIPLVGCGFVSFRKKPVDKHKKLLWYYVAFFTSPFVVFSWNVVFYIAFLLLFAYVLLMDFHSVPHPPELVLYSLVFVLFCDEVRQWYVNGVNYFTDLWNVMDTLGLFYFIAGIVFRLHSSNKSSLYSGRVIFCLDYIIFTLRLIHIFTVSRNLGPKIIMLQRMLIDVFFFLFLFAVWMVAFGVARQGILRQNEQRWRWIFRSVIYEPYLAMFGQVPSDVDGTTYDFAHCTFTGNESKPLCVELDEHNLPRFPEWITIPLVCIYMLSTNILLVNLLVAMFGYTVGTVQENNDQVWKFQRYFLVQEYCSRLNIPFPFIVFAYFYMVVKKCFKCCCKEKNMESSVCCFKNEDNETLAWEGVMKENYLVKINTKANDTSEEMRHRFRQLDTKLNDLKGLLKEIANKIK

SMILES	IC50 [nM]
O=C(N[C@@H](c1ccc(C(F)(F)F)cc1)c1ncccc1F)c1ccc2c(O)ccnc2c1 [Example 105, (S)-N-((3-fluoropyridin-2-yl)(4-(trifluoromethyl)phenyl)methyl)-4-hydroxyquinoline-7-carboxamide 2,2,2-trifluoroacetate]	10.8
Cc1cccnc1[C@@H](NC(=O)c1ccc2c(c1)OCC(=O)N2)c1ccc(OC(F)(F)F)c(F)c1 [Example 357, (S)-N-((3-fluoro-4-(trifluoromethoxy)phenyl)(3-methylpyridin-2-yl)methyl)-3-oxo-3,4-dihydro-2H-benzo[b][1,4]oxazine-7-carboxamide]	46.6
O=C(N[C@@H](c1ccc(C(F)(F)F)cc1)c1ncccc1Cl)c1ccc(=O)[nH]c1 [Example 248, (S)-N-((3-chloropyridin-2-yl)(4-(trifluoromethyl)phenyl)methyl)-6-oxo-1,6-dihydropyridine-3-carboxamide 2,2,2-trifluoroacetate]	11.9
O=C(N[C@@H](c1ccc(OC(F)(F)F)cc1)c1ncccc1F)c1cccs1 [Example 374, (S)-N-((3-fluoropyridin-2-yl)(4-(trifluoromethoxy)phenyl)methyl)thiophene-2-carboxamide]	52.4
O=C(NC(c1ccc(OC(F)(F)F)c(F)c1)c1cc(F)ccc1F)c1ccc(=O)[nH]c1 (stereo not shown) [Example 414, N-((2,5-difluorophenyl)(3-fluoro-4-(trifluoromethoxy)phenyl)methyl)-6-oxo-1,6-dihydropyridine-3-carboxamide]	150
Nc1ccc(C(=O)N[C@@H](c2ccc(C(F)(F)F)cc2)c2ncccc2C(F)(F)F)cn1 [Example 134, (S)-6-amino-N-((4-(trifluoromethyl)phenyl)(3-(trifluoromethyl)pyridin-2-yl)methyl)nicotinamide]	31
Cc1ncoc1C(=O)NC(c1ccc(C(F)(F)F)cc1)c1ncccc1F (stereo not shown) [Example 221]	105
COc1ccc(C(=O)N[C@@H](c2ccc(OC(F)(F)F)c(F)c2)c2ncccc2F)[nH]c1=O [Example 404, (S)-N-((3-fluoro-4-(trifluoromethoxy)phenyl)(3-fluoropyridin-2-yl)methyl)-5-methoxy-6-oxo-1,6-dihydropyridine-2-carboxamide]	3550
O=C(NC(c1cccc(F)c1)c1ccc(OC(F)(F)F)c(F)c1)c1ccc(=O)[nH]c1 (stereo not shown) [Example 417, N-((3-fluoro-4-(trifluoromethoxy)phenyl)(3-fluorophenyl)methyl)-6-oxo-1,6-dihydropyridine-3-carboxamide]	83
O=C(N[C@@H](c1cc(F)cc(C(F)(F)F)c1)c1ncccc1F)c1ccc(=O)[nH]c1 [Example 327, (S)-N-((3-fluoro-5-(trifluoromethyl)phenyl)(3-fluoropyridin-2-yl)methyl)-6-oxo-1,6-dihydropyridine-3-carboxamide]	302
O=C1CCc2cc(C(=O)N[C@@H](c3ccc(C(F)(F)F)cc3)c3ncccc3F)ccc2N1 [Example 318, (S)-N-((3-fluoropyridin-2-yl)(4-(trifluoromethyl)phenyl)methyl)-2-oxo-1,2,3,4-tetrahydroquinoline-6-carboxamide]	29.7
O=C(NC(c1ccc(C(F)(F)F)cc1)c1ncccc1F)c1ccc2nccnc2c1 (stereo not shown) [Example 202, N-((3-fluoropyridin-2-yl)(4-(trifluoromethyl)phenyl)methyl)quinoxaline-6-carboxamide]	35.2
CN(C)c1ccc(C(=O)N[C@@H](c2ccc(C(F)(F)F)cc2)c2ncccc2C(F)(F)F)cn1 [Example 262, (S)-6-(Dimethylamino)-N-((4-(trifluoromethyl)phenyl)(3-(trifluoromethyl)pyridin-2-yl)methyl)nicotinamide]	114
Cc1cc(F)cc([C@H](NC(=O)c2ccc(=O)[nH]c2)c2ncccc2F)c1 [Example 325, (S)-N-((3-fluoro-5-methylphenyl)(3-fluoropyridin-2-yl)methyl)-6-oxo-1,6-dihydropyridine-3-carboxamide]	644
Nc1cccnc1C(=O)N[C@@H](c1ccc(C(F)(F)F)cc1)c1ncccc1C(F)(F)F [Example 144, (S)-3-amino-N-((4-(trifluoromethyl)phenyl)(3-(trifluoromethyl)pyridin-2-yl)methyl)picolinamide]	200
O=C(N[C@@H](c1ccc(C(F)(F)F)cc1)c1ncccc1C(F)(F)F)c1ccc2nccn2c1 [Example 254, (S)-N-((4-(trifluoromethyl)phenyl)(3-(trifluoromethyl)pyridin-2-yl)methyl)imidazo[1,2-a]pyridine-6-carboxamide 2,2,2-trifluoroacetate]	11.8
CC(C)(C)Cc1cccnc1[C@@H](NC(=O)c1ccc2ncccc2c1)c1ccc(C(F)(F)F)cc1 [Example 236, (S)-N-((3-neopentylpyridin-2-yl)(4-(trifluoromethyl)phenyl)methyl)quinoline-6-carboxamide]	239
O=C(N[C@@H](c1ccc(C(F)(F)F)cc1)c1ncccc1C(F)(F)F)C1CCOC1 (stereo partly drawn) [Example 225, N-((S)-(4-(trifluoromethyl)phenyl)(3-(trifluoromethyl)pyridin-2-yl)methyl)THF-3-carboxamide]	487
COc1ccc(C(=O)N[C@@H](c2ccc(C(F)(F)F)cc2)c2ncccc2C(F)(F)F)nn1 [Example 37, (S)-6-methoxy-N-((4-(trifluoromethyl)phenyl)(3-(trifluoromethyl)pyridin-2-yl)methyl)pyridazine-3-carboxamide]	146
O=C(N[C@@H](c1ccc(C(F)(F)F)cc1)c1ncccc1F)c1ccc2nccn2c1 [Example 253, (S)-N-((3-fluoropyridin-2-yl)(4-(trifluoromethyl)phenyl)methyl)imidazo[1,2-a]pyridine-6-carboxamide 2,2,2-trifluoroacetate]	11.4
COC(=O)c1cccc(C(=O)N[C@@H](c2ccc(C(F)(F)F)cc2)c2ncccc2C(F)(F)F)c1 [Example 189, (S)-methyl 3-(((4-(trifluoromethyl)phenyl)(3-(trifluoromethyl)pyridin-2-yl)methyl)carbamoyl)benzoate]	80.6
O=C(N[C@@H](c1ccc(C(F)(F)F)c(F)c1)c1ncccc1C(F)(F)F)c1ccccn1 [Example 112, (S)-N-((3-fluoro-4-(trifluoromethyl)phenyl)(3-(trifluoromethyl)pyridin-2-yl)methyl)picolinamide]	84.4
O=C(NC(c1ccc(OC(F)(F)F)c(F)c1)c1ccc(F)cc1F)c1ccc(=O)[nH]c1 (stereo not shown) [Example 413, N-((2,4-difluorophenyl)(3-fluoro-4-(trifluoromethoxy)phenyl)methyl)-6-oxo-l,6-dihydropyridine-3-carboxamide]	197
O=C(N[C@@H](c1ccc(C(F)(F)F)cc1)c1ncccc1F)c1ccccn1 [Example 194, (S)-N-((3-fluoropyridin-2-yl)(4-(trifluoromethyl)phenyl)methyl)picolinamide]	75.6
O=C(O)Cn1cc(C(=O)N[C@@H](c2ccc(C(F)(F)F)cc2)c2ncccc2F)ccc1=O [Example 429, (S)-2-(5-(((3-Fluoropyridin-2-yl)(4-(trifluoromethyl)phenyl)methyl)carbamoyl)-2-oxopyridin-1(2H)-yl)acetic Acid]	2660
